Results taken from patent US20070149481A1, “N,n-bridged, nitrogen-substituted carbacyclic indolocarbazoles as protein kinase inhibitors” (priority 2002, published 2007).

Test system: PKC (rat brain)
Assay: Protein Kinase C inhibition assay (PKC)
Type: biochemical
Conditions: 10 μM compound
Description: The ERK2 kinase activity assay utilizes a radioactivity-based format in a 96-well PCR plate with radioactive readout. The ERK2 activity was assayed in a 25 μL assay mixture containing 25 mM HEPES (pH 7.0), 250 μM ATP, 1 mM MgCl2, 1 mM DTT, 2% DMSO, 150 ng/mL Myelin Basic Protein (MBP, Sigma M-1891), and 13.6 ng/mL His tagged ERK2 (specific activity=38.1 nmol/min*mg). Compounds were screened for inhibition of the ERK2 kinase activity at a concentration of 10 μM. The kinase reaction was allowed to proceed at 37° C. for 30 minutes, then reaction was stopped by the addition of 5 μl of 0.5M EDTA (pH 8). 15 μL of each solution were then spotted onto the corresponding square of a filtermat (8×12 glassfibre mat 90×120 mm, PE-Wallac 1450-421). The filtermat was allowed to dry and washed once with 10% TCA, 2% PPA, 500 mM NaCl each for 30 minutes at rt. Two further washings in 10% TCA and 2% PPA for 30 minutes were performed, then a final 30 minute wash in 99% EtOH at rt was done and the filtermat was air dried. The dry filtermat was then placed in a sample bag with a Meltilex sheet (Melt-on scintillator sheets 73×109 mm, PE-Wallac 1450-441 for filtermat A) over the filtermat. The bag was trimmed to fit into the microplate heatsealer (PE-Wallac 1495-021). The heatsealer is used to melt the Meltilex on the filtermat. The bag containing the filtermat and the melted Meltilex was then placed into a filter cassette and counted using the Microbeta Jet Scintillation and Luminescence Counter PE-Wallac 1450.
The PKC kinase activity assay utilizes a radioactivity-based format in a 96-well PCR plate with radioactive readout. The PKC activity was assayed in a 25 μL assay mixture containing 25 mM HEPES (pH 7.0), 250 μM ATP, 10 mM MgCl2, 1 mM DTT, 1 mM EDTA (pH 8), 2 mM CaCl2, 2% DMSO, 250 ng/mL Histone H1 (Roche 1 004 875), and 165 ng/mL PKC (rat brain, Calbiochem 539494, specific activity=1600 nmol/min*mg). Compounds were screened for inhibition of the PKC kinase activity at a concentration of 10 μM. The kinase reaction was allowed to proceed at 37° C. for 30 minutes, then the reaction was stopped by addition of 5 μL of 0.5M EDTA (pH 8). The remainder of the protocol is identical to the one reported for ERK2.

- % Inhibition PKC: 91.62%
SMILES: NC(=O)[C@]1(N)CC2CC1n1c3ccccc3c3c4c(c5c6ccccc6n2c5c31)C(=O)NC4=O (mixture of isomers) [Compound 5]
